Tests used:
[1] = system: ALMS1-silenced adipocytes; assay: Intracellular triglyceride (TG) filling of ALMS1-silenced adipocytes; assay type: cell-based, human; details: 24-hours post NIG treatment
Protocol: Fluorescence measurement. The preadipocytes were cultured in a 96 well plate and 12 wells infected with the either ALMS1 shRNA lentiviral particles or CTRL shRNA lentiviral particles and differentiated the next day into mature adipocytes. 3 weeks later, the intracellular triglycerides were stained with AdipoRed staining following the manufacturer's procedure and the fluorescence was measured on a Tecan Infinite 200 quad4 monochromator (Tecan, Lyon, France) at a wavelength of 520 nm. The generated data were then analyzed using the Tecan Magellan Data Analysis software using as blank unstained adipocytes. The inventors next tested whether acidifying ALMS1-silenced adipocytes using Nigericin (NIG.), an electroneutral K^+/H^+ exchange ionophore known to cause osmotic swelling of the GSVs would bypass the Alms1-associated defect in GLUT4 fusion and glucose absorption.

[2] = system: human mature adipocytes; assay: Electron microscopy of vesicle swelling and fusion with the plasma membrane; assay type: cell-based
Description: (§1) The inventors next tested whether acidifying ALMS1-silenced adipocytes using Nigericin (NIG.), an electroneutral K^+/H^+ exchange ionophore known to cause osmotic swelling of the GSVs would bypass the Alms1-associated defect in GLUT4 fusion and glucose absorption.

[3] = system: human mature adipocytes; assay: 2-NBDG absorption in control and ALMS1-silenced mature adipocytes; assay type: cell-based; details: for 2-NBDG absorption: ALMS1-silenced adipocytes, 30 min stimulation
Protocol: (§2) Cell culture. Human white visceral preadipocytes (Catalog #: C-12732; PromoCell) and human mesenchymal stem cells (Catalog #: C-12974; PromoCell) derived from healthy bone marrow were purchased. The preadipocytes were seeded according to manufacturer's protocol and cultured in the Preadipocyte growth medium (Catalog #: C-27410; PromoCell) to confluence. One day before inducing terminal adipogenesis, the cells were infected with specific lentiviral particles consisted of a pool of 3 shRNAs target-specific constructs purchased from Santa Cruz Biotechnology and on the next day, adipogenic differentiation was induced by changing the medium to the Preadipocyte Differentiation Medium (Catalog #: C-27436; PromoCell) for 2 days. After the differentiation phase, the medium was finally changed to the Adipocyte Nutrition medium (Catalog #: C-27438; PromoCell). For the culture without insulin, Adipocyte Basal Medium (Catalog #: C-2431; PromoCell) without insulin was complemented with 5 g/L of deoxyglucose, 8 μg/mL d-Biotin, 400 ng/mL Dexamethasone. For the hMSCs, they were cultured in Mesenchymal Stem Cell Growth Medium (Catalog #: C-28010; PromoCell) to confluence. hMSCs were transfected with specific siRNAs as described above and on the next day adipogenic differentiation was induced by changing the medium to the MSC Adipogenic Differentiation Medium (Catalog #: C28011; Promocell).
Following ALMS1 silencing in 2-week-old mature adipocytes, glucose absorption capacity was assessed using labelled glucose analogue (2-NBDG). In the absence of insulin stimulation, no 2-NBDG uptake could be detected in ALMS1-silenced and control mature adipocytes (FIG. 2A). […] Further to reduced glucose absorption in ALMS1-silenced adipocytes, the inventors observed a reduction in intracellular triglycerides (TG) in these cells a week later (FIGS. 2C-D). […]

[4] = system: ALMS1-silenced adipocytes; assay: Immunodetection of GLUT4 / TBC1D4 at the plasma membrane in ALMS1-silenced adipocytes; assay type: cell-based, human; details: NIG-treated ALMS1-silenced adipocytes
Protocol: Western blots and immunofluorescence microscopy. Male Alms1^foz/foz and WT littermates were anaesthetized. The following insulin sensitive tissues: liver, heart, muscle and adipose tissue were harvested and directly placed in RIPA buffer (Tris 50 mM, NaCl 150 mM, 0.1% SDS, 1% Triton-X100) supplemented with Complete mini protease inhibitor cocktail and PhosSTOP phosphatase inhibitor cocktail (Roche, Switzerland). Samples were sonicated and centrifuged […] at 17 000 g, 4° C. […]. Protein concentration assayed with BCA assay (Thermo Fisher Scientific, USA). Cellular proteins from cells were obtained by trichloroacetic acid precipitation and immunoblot analyses were performed using 30-50 μg total protein. Specific antibody binding was visualized using the SuperSignal® West Femto Maximum Sensitivity Substrate (catalog #: Lf145954, Pierce) on a BioRad Versadoc™ Imaging System or ImageQuant LAS 4000 imager (GE Healthcare, UK). Nonspecific proteins stained with Ponceau S were used as loading controls to normalize the signal obtained after specific immunodetection of the protein of interest using the Bio-Rad Quantity One program. For immunofluorescence experiments, the cells were seeded on permanox 8-wells Lab-Tek II Chamber Slide (Catalog #: 177445; NUNC). Cells were treated as indicated. […]

[5] = system: human mature adipocytes; assay: Acridine orange acidification of adipocytes (time lapse); assay type: cell-based
Description: While AKT-phosphorylation of TBC1D4 has been known to in some way lead to GLUT4 trafficking, the ultimate GSV-PM fusion step is an insulin regulated non-AKT dependent event that requires osmotic swelling of the GSVs under the action of the vATPase H^+ pump. However, knowledge of the actual signal and mechanism for activation of the H^+ pump by insulin was missing. The inventors tested if ALMS1 inactivation could prevent the acidification of the GSVs and therefore the chemo-osmotic-mediated release of GLUT4 to the PM using the acidotrophic dye, acridine orange, which emits a green fluorescence at low concentration and an orange-red fluorescence at high concentrations in the lysosomes in which acridine orange is protonated and sequestered. In absence of insulin, no orange-red fluorescence was detected in the adipocytes.
as §1

[6] = system: Alms1foz/foz mice; assay: Insulin tolerance test (ITT) in Alms1foz/foz mice; assay type: in vivo, mouse
Description: Six month old obese and young (<60 days old) nonobese Alms1^foz/foz mice and wildtype (WT) littermates were used to investigate what primary metabolic impairment leads Alms1^foz/foz mice to develop T2DM. Six month old Alms1^foz/foz mice were obese with an average body weight of 45.5 g±1.7 g compared to 26.4 g±1.3 g for WT littermates (FIG. 1A) and as previously shown had fasting hyperglycaemia and impaired glucose tolerance with elevated HOMA scores. […] (FIG. 1C). Obesity of Alms1^foz/foz mice was due to severe adipocyte hypertrophy (FIG. 1B) rather than the adipocyte hyperplasia more typically seen in obese BBS mice. To determine what the primary defect was that was causing the glucose intolerance in Alms1^foz/foz mice, young lean Alms1^foz/foz mice were studied to remove the confounding effect of obesity on insulin responsiveness. […]
Biochemical tests. […] Tail blood was obtained and the plasma glucose was determined for each mouse using a glucometer (Optium Xceed, Abbott, USA) and blood glucose test strips (Optium point of care, Abbott, USA) at 0, 15, 30 and 60 min after insulin injection. […] Plasma glucose was determined for each mouse using a glucometer with sampling via tail vein at 0, 15, 30, 60 and 120 min after glucose injection. […] The homeostasis model assessment of insulin resistance (HOMA-IR) index was calculated using individual mouse fasting insulin and fasting glucose levels. […]

[7] = system: mature adipocytes; assay: 2-NBDG glucose absorption in mature adipocytes infected with min-αPKC lentiviral particles; assay type: cell-based, human; details: n=8 per group
Protocol: as §2, with “Promocell). […]” for “Promocell).”

[8] = control human mature adipocytes

Compound	TG-filling of adipocytes [1]	vesicular swelling and fusion with the PM ([2]; ALMS1-silenced adipocytes)	vesicular swelling and fusion with the PM ([2]; control adipocytes)	2-NBDG absorption [3]	GLUT4 fusion with the PM [4]	acidification (acridine orange orange-red fluorescence) ([5]; ALMS1-silenced adipocytes)	acidification (acridine orange orange-red fluorescence) [5, 8]	2-NBDG uptake ([3]; control human mature adipocytes, insulin stimulation)	insulin responsiveness (ITT) ([6]; 2 months old nonobese Alms1foz/foz males)	glycaemia response to insulin administration (ITT) ([6]; six month old obese Alms1foz/foz mice, doses as high as 20 U/kg)	2-NBDG absorption, increase compare to control ([7]; absence of INS, control lentiviral particles as comparator)	2-NBDG absorption versus control ([7]; presence of INS)
CO[C@@H]1C[C@@H](C[C@H]2CC[C@H](C)[C@H]([C@@H](C)C(=O)O)O2)O[C@]2(O[C@](C)([C@H]3CC[C@@](C)([C@@H]4O[C@@H]([C@H]5O[C@@](O)(CO)[C@H](C)C[C@@H]5C)C[C@@H]4C)O3)C[C@H]2C)[C@@H]1C [Nigericin]	restoration of TG-filling	induced vesicular swelling and fusion with the PM	induced vesicular swelling and fusion with the PM	restore 2-NBDG absorption in the ALMS1-silenced adipocytes to levels seen in control cells	restored GLUT4 fusion with the PM	rapid acidification	rapid acidification					
insulin		not in ALMS1-silenced adipocytes	swelling of the vesicles	little effect		loss of insulin-mediated acidification	rapid appearance of red color	increased 2-NBDG uptake	significantly reduced insulin responsiveness	unresponsive		
min-αPKC-FLAG: minimum ALMS1-interacting domain of αPKC (SEQ ID NOs: 14 and 15) with Flag-TAG, expressed from a lentiviral vector											3.5 times	no significant difference

Reference: US11826403B2, “Target for diabetes treatment and prevention” (UNIVERSITE DE STRASBOURG, priority 2014, dated 2023)
